This note sets out measurements from patent US6855730B2, “3-methylidenyl-2-indolinone modulators of protein kinase” (Sugen, Inc., priority 1998, dated 2005).

One test has as its target EGFR (Homo sapiens, UniProt P00533). As to the kind of experiment: Biochemical EGFR assay (ELISA, A431 cell lysate). Also noted: A431 cell lysate (Screening Lab, SUGEN, Inc.); host or cells: A431. The note with it: read-out: bio EGFr IC50. As for the experimental part: This assay measures the in vitro kinase activity of EGFR using ELISA.
Materials and Reagents • 1. […] SUMO1 monoclonal anti-EGFR antibody (Biochemistry Lab, SUGEN, Inc.). • 3. PBS (Dulbecco's Phosphate-Buffered Saline, Gibco Catalog No. 450-1300EB). • 4. TBST Buffer
• 6. A431 cell lysate (Screening Lab, SUGEN, Inc.) • 7. TBS Buffer:
Prepare a 1.0 mM solution in dH2O. This reagent should be made up immediately prior to use and kept on ice. • 10. MnCl2.
Prepare a 1.0 M stock solution in dH2O. • 11. ATP/MnCl2 phosphorylation mix
This reagent should be prepared immediately before use and kept on ice. • 12. NUNC 96-well V bottom polypropylene plates (Applied Scientific Cat. No. AS-72092). • 13. Ethylenediaminetetraacetic acid (EDTA)
Prepare 200 mM working solution in dH2O. Adjust to pH 8.0 with 10 N NaOH. • 14. Rabbit polyclonal anti-phosphotyrosine serum (Biochemistry Lab, SUGEN, Inc.) • 15. Goat anti-rabbit IgG peroxidase conjugate (Biosource Cat. No. ALI0404) • 16. ABTS (2,2′-azino-bis(3-ethylbenzthiazoline-6-sulfonic acid), Sigma Cat. No. A-1888).
Mix first two ingredients in about 900 ml dH2O, adjust pH to 4.0 with phosphoric acid. Add ABTS, cover, let sit about 0.5 hr., filter. The solution should be kept in the dark at 4° C. until ready to use. • 17. Hydrogen peroxide 30% solution (Fisher Cat. No. H325) • 18. ABTS/H2O2 • Mix 15 ml ABTS solution and 2.0 μl H2O2. Prepare 5 minutes before use. • 19. 0.2 M HCl
Procedure • 1. Coat Corning 96 well ELISA plates with 0.5 μg SUMO1 in 100 μl PBS per well, store overnight at 4° C. • 2. Remove unbound SUMO1 from wells by inverting plate to remove liquid., Wash 1× with dH2O. Pat the plate on a paper towel to remove excess liquid. • 3. Add 150 μl of Blocking Buffer to each well. Incubate for 30 min. at room temperature with shaking. • 4. Wash plate 3× with deionized water, then once with TBST. Pat plate on a paper towel to remove excess liquid and bubbles. • 5. Dilute lysate in PBS (7 μg lysate/100 μl PBS). • 6. Add 100 μl of diluted lysate to each well. Shake at room temperature for 60 min. • 7. Wash plates as described in 4, above. • 8. Add 120 μl TBS to ELISA plate containing captured EGFR. • 9. Dilute test compound 1:10 in TBS in 96-well polypropylene plates (i.e. 10 μl compound+90 μl TBS). • 10. Add 13.5 μl diluted test compound to ELISA plate. […] Incubate for 30 minutes while shaking at room temperature. • 12. […] After 5 minutes, stop reaction by adding 16.5 μl of 200 mM EDTA (pH 8.0) to each well, shaking continuously. After the EDTA has been added, shake for 1 min. • 14. Wash 4× with deionized water, twice with TBST. • 15. Add 100 μl anti-phosphotyrosine (1:3000 dilution in TBST) per well. Incubate 30-45 min. at room temperature, with shaking. • 16. Wash as described in 4, above. • 17. Add 100 μl Biosource Goat anti-rabbit IgG peroxidase conjugate (1:2000 dilution in TBST) to each well. Incubate 30 min. at room temperature, with shaking. • 18. Wash as described in 4, above. • 19. Add 100 μl of ABTS/H2O2 solution to each well. • 20. Incubate 5 to 10 minutes with shaking. Remove any bubbles. • 21. If necessary stop reaction with the addition of 100 μl 1 0.2 M HCl per well. • 22. Read assay on Dynatech MR7000 ELISA reader. Test Filter: 410 nM Reference Filter: 630 Nm.

Test [1] concerns the target T1, chimeric receptor containing the EGFR extracellular domain and intracellular HER2 kinase domain (Homo sapiens, UniProt P04626).
T1 construct: fused on or other part: EGFR ectodomain + HER2 intracellular part, ATP-site indolinones: HER2's kinase
Put plainly: EGF Receptor-HER2 chimeric receptor assay in whole cells (ELISA). Type of test: cell-based. The note with it: read-out: HER-2 kinase IC50. As for the experimental part:
EGF Receptor-HER2 Chimeric Receptor Assay In Whole Cells.
HER2 kinase activity in whole EGFR-NIH3T3 cells are measured as described below:
• a. […] 05-101 (UBI) (a monoclonal antibody recognizing an EGFR extracellular domain). • c. Anti-phosphotyrosine antibody (anti-Ptyr) (polyclonal) (see, Fendley, et al., supra). • d. Detection antibody: Goat anti-rabbit IgG horseradish peroxidase conjugate, TAGO, Inc., Burlingame, Calif. • e. TBST buffer:
• h. Stock reagents of:
Pre-coat ELISA Plate • 1. […] Coated plates are good for up to 10 days when stored at 4° C. • 2. On day of use, remove coating buffer and replace with 100 μl blocking buffer (5% Carnation Instant Non-Fat Dry Milk in PBS). Incubate the plate, shaking, at room temperature (about 23° C. to 25° C.) for 30 minutes. Just prior to use, remove blocking buffer and wash plate 4 times with TBST buffer.
Seeding Cells • 1. An NIH3T3 cell line overexpressing a chimeric receptor containing the EGFR extracellular domain and intracellular HER2 kinase domain can be used for this assay. • 2. Choose dishes having 80-90% confluence for the experiment. Trypsinize cells and stop reaction by adding 10% fetal bovine serum. Suspend cells in DMEM medium (10% CS DMEM medium) and centrifuge once at 1500 rpm, at room temperature for 5 minutes. • 3. Resuspend cells in seeding medium (DMEM, 0.5% bovine serum), and count the cells using trypan blue. Viability above 90% is acceptable. Seed cells in DMEM medium (0.5% bovine serum) at a density of 10,000 cells per well, 100 μl per well, in a 96 well microtiter plate. Incubate seeded cells in 5% CO2. at 37° C. for about 40 hours.
Assay Procedures • 1. Check seeded cells for contamination using an inverted microscope. Dilute drug stock (10 mg/ml in DMSO) 1:10 in DMEM medium, then transfer 5 μl to a […] well for a final drug dilution of 1:200 and a final DMSO concentration of 1%. Control wells receive DMSO alone. Incubate in 5% CO2 at 37° C. for two hours. • 2. Prepare EGF ligand: dilute stock EGF in DMEM so that upon transfer of 10 μl dilute EGF (1:12 dilution), 100 nM final concentration is attained. • 3. Prepare fresh HNTG* sufficient for 100 μl per well, and place on ice.
• 4. After 120 minutes incubation with drug, add prepared […] ligand to cells, 10 μl per well, to a final concentration of 100 nM. Control wells receive DMEM alone. Incubate with shaking, at room temperature, for 5 minutes. • 5. Remove drug, EGF, and DMEM. Wash cells twice with PBS. Transfer HNTG* to cells, 100 μl per well. Place on ice for 5 minutes. Meanwhile, remove blocking buffer from other ELISA plate and wash with TBST as described above. • 6. With a pipette tip securely fitted to a micropipettor, scrape cells from plate and homogenize cell material by repeatedly aspirating and dispensing the HNTG* lysis buffer. Transfer lysate to a coated, blocked, and washed ELISA plate. Incubate shaking at room temperature for one hour. • 7. Remove lysate and wash 4 times with TBST. Transfer freshly diluted anti-Ptyr antibody to ELISA plate at 100 μl per well. Incubate shaking at room temperature for 30 minutes in the presence of the anti-Ptyr antiserum (1:3000 dilution in TBST). • 8. Remove the anti-Ptyr antibody and wash 4 times with TBST. Transfer the freshly diluted TAGO anti-rabbit IgG antibody to the ELISA plate at 100 μl per well. Incubate shaking at room temperature for 30 minutes (anti-rabbit IgG antibody: 1:3000 dilution in TBST). • 9. Remove TAGO detection antibody and wash 4 times with TBST. Transfer freshly prepared ABTS/H2O2 solution to ELISA plate, 100 μl per well. Incubate shaking at room temperature for 20 minutes. (ABTS/H2O2 solution: 1.0 μl 30% H2O2 in 10 ml ABTS stock). • 10. Stop reaction by adding 50 μl 5N H2SO4 (optional), and determine O.D. at 410 nm. • 11. The maximal phosphotyrosine signal is determined by subtracting the value of the negative controls from the positive controls. […]
Background: In an ELISA, binding on a coated surface is turned into a signal by an enzyme label.

The next test has as its target T2, PDGFR-β (Homo sapiens, UniProt P09619).
T2 construct: host or cells: NIH 3T3
Put plainly: Biochemical PDGFR assay (ELISA, PDGFR-β expressing NIH 3T3 cell lysate). The note with it: read-out: bio PDGF IC50. From the text:
This assay measures the in vitro kinase activity of PDGFR using ELISA.
Unless otherwise noted, the preparation of working solution-of the following reagents is the same as that for the Biochemical EGFR assay, above. • 1. […] 28D4C10 monoclonal anti-PDGFR antibody (Biochemistry Lab, SUGEN, Inc.). • 3. PBS (Dulbecco's Phosphate-Buffered Saline, Gibco Catalog No. 450-1300EB) • 4. TBST Buffer. • 5. Blocking Buffer. • 6. PDGFR-β expressing NIH 3T3 cell lysate (Screening Lab, SUGEN, Inc.). • 7. TBS Buffer. • 8. TBS+10% DMSO. • 9. […] MnCl2. • 11. Kinase buffer phosphorylation mix.
• 12. NUNC 96-well V bottom polypropylene plates (Applied Scientific Cat. No. AS-72092). • 13. Ethylenediaminetetraacetic acid (EDTA). • 14. Rabbit polyclonal anti-phosphotyrosine serum (Biochemistry Lab, SUGEN, Inc.). • 15. Goat anti-rabbit IgG peroxidase conjugate (Biosource Cat. No. ALI0404). • 16. 2,2′-azino-bis(3-ethylbenzthiazoline-6-sulfonic acid) (ABTS, Sigma Cat. No. A-1888). • 17. Hydrogen peroxide 30% solution (Fisher Cat. No. H325). • 18. ABTS/H2O2. • 19. 0.2 M HCl.
Procedure • 1. Coat Corning 96 well ELISA plates with 0.5 μg 28D4C10 in 100 μl PBS per well, store overnight at 4° C. • 2. Remove unbound 28D4C10 from wells by inverting plate to remove liquid. Wash 1× with dH2O. Pat the plate on a paper towel to remove excess liquid. • 3. Add 150 μl of Blocking Buffer to each well. Incubate for 30 min. at room temperature with shaking. • 4. Wash plate 3× with deionized water, then once with TBST. Pat plate on a paper towel to remove excess liquid and bubbles. • 5. Dilute lysate in HNTG (10 μg lysate/100 μl HNTG) • 6. Add 100 μl of diluted lysate to each well. Shake at room temperature for 60 min. • 7. Wash plates as described in 4, above. • 8. Add 80 μl working kinase buffer mix to ELISA plate containing captured PDGFR. • 9. Dilute test compound 1:10 in TBS in 96-well polypropylene plates (i.e., 10 μl compound+90 μl TBS). • 10. Add 10 μl diluted test compound to ELISA plate. […] Incubate for 30 minutes while shaking at room temperature. • 12. Add 10 μl ATP directly to all wells except negative control well (final well volume should be approximately 100 μl with 20 μM ATP in each well.) Incubate 30 minutes while shaking. • 13. After 30 minutes, stop reaction by adding 10 μl of 200 mM EDTA (pH 8.0) to each well. • 14. Wash 4× with deionized water, twice with TBST. • 15. Add 100 μl anti-phosphotyrosine (1:3000 dilution in TBST) per well. Incubate 30-45 min. at room temperature, with shaking. • 16. Wash as described in 4, above. • 17. Add 100 μl Biosource Goat anti-rabbit IgG peroxidase conjugate (1:2000 dilution in TBST) to each well. Incubate 30 min. at room temperature, with shaking. • 18. Wash as described in 4, above. • 19. Add 100 μl of ABTS/H2O2 solution to each well. • 20. Incubate 10 to 30 minutes with shaking. Remove any bubbles. • 21. If necessary stop reaction with the addition of 100 μl 0.2 M HCl per well. • 22. Read assay on Dynatech MR7000 ELISA reader: test filter: 410 nM, reference filter: 630 nM.

A further test addresses T3, flkGST (Homo sapiens, UniProt P35968).
T3 construct: GST
As to the kind of experiment: bio flkGST assay. Type of test: biochemical.

SMILES strings stand for the structures. Some results are limits rather than exact numbers.

By IC50 is commonly meant the concentration needed to halve the response being measured.

T2 sequence (P09619 33-1106): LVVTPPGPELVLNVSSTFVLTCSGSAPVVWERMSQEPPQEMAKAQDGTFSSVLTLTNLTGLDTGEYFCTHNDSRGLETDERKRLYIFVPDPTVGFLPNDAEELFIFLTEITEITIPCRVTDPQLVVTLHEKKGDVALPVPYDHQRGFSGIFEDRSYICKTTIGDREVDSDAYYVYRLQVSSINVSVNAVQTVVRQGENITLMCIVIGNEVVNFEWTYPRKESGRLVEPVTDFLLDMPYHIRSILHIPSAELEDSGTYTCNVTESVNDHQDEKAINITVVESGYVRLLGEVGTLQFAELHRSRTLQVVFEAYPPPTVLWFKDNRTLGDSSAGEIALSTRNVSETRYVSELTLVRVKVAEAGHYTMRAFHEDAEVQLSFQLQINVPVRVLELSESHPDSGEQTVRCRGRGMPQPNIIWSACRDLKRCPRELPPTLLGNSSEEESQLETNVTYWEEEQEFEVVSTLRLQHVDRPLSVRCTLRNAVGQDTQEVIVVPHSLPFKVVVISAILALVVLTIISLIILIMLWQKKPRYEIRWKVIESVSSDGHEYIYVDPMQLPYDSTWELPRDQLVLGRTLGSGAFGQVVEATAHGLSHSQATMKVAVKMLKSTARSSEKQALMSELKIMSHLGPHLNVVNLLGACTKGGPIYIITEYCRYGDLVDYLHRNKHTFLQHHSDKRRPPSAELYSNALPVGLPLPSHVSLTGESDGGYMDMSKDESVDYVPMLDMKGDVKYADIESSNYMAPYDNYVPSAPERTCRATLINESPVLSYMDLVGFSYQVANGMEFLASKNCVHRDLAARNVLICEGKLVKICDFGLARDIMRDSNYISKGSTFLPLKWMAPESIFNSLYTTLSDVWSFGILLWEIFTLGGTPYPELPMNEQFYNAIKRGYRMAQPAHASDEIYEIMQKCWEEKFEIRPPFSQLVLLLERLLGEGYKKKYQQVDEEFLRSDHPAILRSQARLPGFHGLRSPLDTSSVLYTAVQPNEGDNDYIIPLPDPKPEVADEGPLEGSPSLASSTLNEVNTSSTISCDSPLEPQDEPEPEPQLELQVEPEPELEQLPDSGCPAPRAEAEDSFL
T3 sequence (P35968 786-1356 limits assumed): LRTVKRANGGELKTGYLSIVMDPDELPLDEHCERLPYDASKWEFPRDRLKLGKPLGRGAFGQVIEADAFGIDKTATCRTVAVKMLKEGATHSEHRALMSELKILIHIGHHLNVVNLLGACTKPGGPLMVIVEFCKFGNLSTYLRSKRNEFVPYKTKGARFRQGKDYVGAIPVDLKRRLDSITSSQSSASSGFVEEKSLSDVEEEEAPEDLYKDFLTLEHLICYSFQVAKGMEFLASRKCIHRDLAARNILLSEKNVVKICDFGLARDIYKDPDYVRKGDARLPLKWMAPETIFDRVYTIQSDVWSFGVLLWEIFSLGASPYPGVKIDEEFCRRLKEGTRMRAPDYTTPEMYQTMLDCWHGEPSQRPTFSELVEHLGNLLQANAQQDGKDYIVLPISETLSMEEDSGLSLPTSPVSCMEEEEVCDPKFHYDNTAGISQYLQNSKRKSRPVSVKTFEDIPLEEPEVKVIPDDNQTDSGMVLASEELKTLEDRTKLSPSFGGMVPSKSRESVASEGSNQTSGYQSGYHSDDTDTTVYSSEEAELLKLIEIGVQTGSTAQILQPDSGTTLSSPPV
T1 sequence (P04626 720-1255 limits assumed, change not shown): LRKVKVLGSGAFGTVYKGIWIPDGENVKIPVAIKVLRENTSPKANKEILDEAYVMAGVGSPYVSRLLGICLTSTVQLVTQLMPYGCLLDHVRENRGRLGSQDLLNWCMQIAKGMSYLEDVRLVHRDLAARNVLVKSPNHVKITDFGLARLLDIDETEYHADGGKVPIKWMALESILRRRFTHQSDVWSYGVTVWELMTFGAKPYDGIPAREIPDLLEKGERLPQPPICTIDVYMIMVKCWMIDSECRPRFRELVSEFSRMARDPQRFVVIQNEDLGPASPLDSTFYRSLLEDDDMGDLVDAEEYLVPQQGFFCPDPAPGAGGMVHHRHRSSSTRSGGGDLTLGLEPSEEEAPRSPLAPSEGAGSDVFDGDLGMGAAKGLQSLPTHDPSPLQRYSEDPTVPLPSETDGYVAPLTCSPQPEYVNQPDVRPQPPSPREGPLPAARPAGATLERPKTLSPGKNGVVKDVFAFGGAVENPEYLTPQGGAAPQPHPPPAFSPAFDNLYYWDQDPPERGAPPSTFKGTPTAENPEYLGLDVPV
Sequence of EGFR (P00533 25-1210): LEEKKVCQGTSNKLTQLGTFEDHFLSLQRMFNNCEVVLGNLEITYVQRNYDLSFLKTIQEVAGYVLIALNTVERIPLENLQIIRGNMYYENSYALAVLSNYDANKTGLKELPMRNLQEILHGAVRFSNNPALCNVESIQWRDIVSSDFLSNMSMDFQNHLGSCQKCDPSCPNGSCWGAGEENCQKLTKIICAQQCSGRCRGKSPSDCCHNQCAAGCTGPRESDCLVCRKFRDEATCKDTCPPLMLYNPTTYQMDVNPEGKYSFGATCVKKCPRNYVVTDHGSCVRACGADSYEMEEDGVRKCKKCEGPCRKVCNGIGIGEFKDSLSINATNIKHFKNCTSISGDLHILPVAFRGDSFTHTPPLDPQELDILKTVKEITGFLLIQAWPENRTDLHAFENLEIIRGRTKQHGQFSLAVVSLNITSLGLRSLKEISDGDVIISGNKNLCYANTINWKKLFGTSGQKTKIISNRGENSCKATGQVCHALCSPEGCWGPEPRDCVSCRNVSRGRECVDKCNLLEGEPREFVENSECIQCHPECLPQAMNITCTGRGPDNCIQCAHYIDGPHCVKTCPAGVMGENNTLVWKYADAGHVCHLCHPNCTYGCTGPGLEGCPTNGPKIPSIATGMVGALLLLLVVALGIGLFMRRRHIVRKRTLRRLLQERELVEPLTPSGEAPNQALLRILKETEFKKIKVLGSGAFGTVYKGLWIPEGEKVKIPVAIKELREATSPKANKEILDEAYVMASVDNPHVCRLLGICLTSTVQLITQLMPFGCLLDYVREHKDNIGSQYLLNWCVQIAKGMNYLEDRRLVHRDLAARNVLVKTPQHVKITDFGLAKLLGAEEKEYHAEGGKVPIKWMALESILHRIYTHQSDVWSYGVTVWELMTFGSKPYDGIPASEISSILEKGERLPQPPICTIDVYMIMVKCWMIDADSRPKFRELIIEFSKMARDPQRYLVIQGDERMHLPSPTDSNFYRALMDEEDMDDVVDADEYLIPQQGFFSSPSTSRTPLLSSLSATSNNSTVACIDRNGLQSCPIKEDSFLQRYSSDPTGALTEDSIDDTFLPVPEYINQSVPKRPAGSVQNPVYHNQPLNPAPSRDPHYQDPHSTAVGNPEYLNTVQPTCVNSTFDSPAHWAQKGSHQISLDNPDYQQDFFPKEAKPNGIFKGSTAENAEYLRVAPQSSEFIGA

Regarding `Cc1c(C=C2C(=O)Nc3ccc(S(=O)(=O)N(C)C)cc32)[nH]c2ccccc12` (racemic) [Example 155, 3-(3-Methyl-1H-indol-2-ylmethylene)-2-oxo-2,3-dihydro-1H-indole-5-sulfonic acid dimethylamide], the IC50 (on EGFR; in test [1]) was over 100 µM throughout.
Take `CCOC(=O)c1c(C)[nH]c(/C=C2\C(=O)Nc3ccc(OC)cc32)c1CCCN(C)C` [Example 120, 4-(3-Dimethylaminopropyl)-5-(5-methoxy-2-oxo-1,2-dihydroindol-3-ylidenemethyl)-2-methyl-1H-pyrrole-3-carboxylic acid ethyl ester]: the IC50 stood at 9.97 µM at PDGFR-β and 6.32 µM against flkGST.
Taken in the same sequence, the figures for `CCOC(=O)c1c(C)[nH]c(/C=C2\C(=O)Nc3ccc(OC)cc32)c1CCCN1CCOCC1` [Example 121, 5-(5-Methoxy-2-oxo-1,2-dihydroindol-3-ylidenemethyl)-2-methyl-4-(3-morpholin-4-ylpropyl)-1H-pyrrole-3-carboxylic acid ethyl ester] were 26.7 µM and 1 µM.
Turning to `CCOC(=O)c1c(C)[nH]c(/C=C2\C(=O)Nc3ccc(OC)cc32)c1CCCN1CCN(C)CC1` [Example 122, 5-(5-Methoxy-2-oxo-1,2-dihydroindol-3-ylidenemethyl)-2-methyl-4-[3-(4-methylpiperazin-1-yl)-propyl]-1h-pyrrole-3-carboxylic acid ethyl ester], the results for the 50% inhibitory concentration (IC50) at PDGFR-β and against flkGST were 2.13 µM and 0.51 µM, respectively.
